Results taken from the CheMixHub viscosity set.
Several values for one entry are separate records, joined by “and”; a condition that tells them apart may be missing. Identical values can stand only once. ± gives the uncertainty stated by the source.

Experiment: xn = mol fraction of the nth substance listed

CC(=O)N(C)C + O
Conditions	viscosity
298.15 K, 101 kPa, x1 = 0.0203	1.214 ± 0.011 mPa·s
298.15 K, 101 kPa, x1 = 0.025	1.265 ± 0.016 mPa·s
298.15 K, 101 kPa, x1 = 0.0502	1.653 ± 0.013 mPa·s
298.15 K, 101 kPa, x1 = 0.065	1.871 ± 0.024 mPa·s
298.15 K, 101 kPa, x1 = 0.0703	1.982 ± 0.015 mPa·s
298.15 K, 101 kPa, x1 = 0.1	2.467 ± 0.018 mPa·s
298.15 K, 101 kPa, x1 = 0.1011	2.413 ± 0.03 mPa·s
298.15 K, 101 kPa, x1 = 0.12	2.754 ± 0.034 mPa·s
298.15 K, 101 kPa, x1 = 0.1203	2.797 ± 0.02 mPa·s
298.15 K, 101 kPa, x1 = 0.1495	3.161 ± 0.039 mPa·s
298.15 K, 101 kPa, x1 = 0.1497	3.223 ± 0.022 mPa·s
298.15 K, 101 kPa, x1 = 0.1698	3.471 ± 0.023 mPa·s
298.15 K, 101 kPa, x1 = 0.2003	3.774 ± 0.025 mPa·s
298.15 K, 101 kPa, x1 = 0.2004	3.728 ± 0.045 mPa·s
298.15 K, 101 kPa, x1 = 0.22	3.908 ± 0.025 mPa·s
298.15 K, 101 kPa, x1 = 0.2497	4.023 ± 0.026 mPa·s
298.15 K, 101 kPa, x1 = 0.2512	3.94 ± 0.048 mPa·s
298.15 K, 101 kPa, x1 = 0.2701	4.04 ± 0.026 mPa·s
298.15 K, 101 kPa, x1 = 0.3	3.99 ± 0.026 mPa·s
298.15 K, 101 kPa, x1 = 0.3002	3.941 ± 0.048 mPa·s
298.15 K, 101 kPa, x1 = 0.32	3.917 ± 0.026 mPa·s
298.15 K, 101 kPa, x1 = 0.3501	3.692 ± 0.045 mPa·s and 3.761 ± 0.025 mPa·s
298.15 K, 101 kPa, x1 = 0.4002	3.426 ± 0.023 mPa·s
298.15 K, 101 kPa, x1 = 0.4009	3.341 ± 0.041 mPa·s
298.15 K, 101 kPa, x1 = 0.4503	3.059 ± 0.021 mPa·s
298.15 K, 101 kPa, x1 = 0.5003	2.69 ± 0.018 mPa·s
298.15 K, 101 kPa, x1 = 0.5018	2.606 ± 0.032 mPa·s
298.15 K, 101 kPa, x1 = 0.5999	2.09 ± 0.015 mPa·s
298.15 K, 101 kPa, x1 = 0.6031	1.995 ± 0.025 mPa·s
298.15 K, 101 kPa, x1 = 0.6505	1.777 ± 0.023 mPa·s
298.15 K, 101 kPa, x1 = 0.7	1.646 ± 0.012 mPa·s
298.15 K, 101 kPa, x1 = 0.7005	1.592 ± 0.02 mPa·s
298.15 K, 101 kPa, x1 = 0.755	1.419 ± 0.018 mPa·s
298.15 K, 101 kPa, x1 = 0.8002	1.329 ± 0.01 mPa·s
298.15 K, 101 kPa, x1 = 0.8048	1.284 ± 0.017 mPa·s
298.15 K, 101 kPa, x1 = 0.8499	1.212 ± 0.0097 mPa·s
298.15 K, 101 kPa, x1 = 0.8501	1.185 ± 0.016 mPa·s
298.15 K, 101 kPa, x1 = 0.8999	1.113 ± 0.0091 mPa·s
298.15 K, 101 kPa, x1 = 0.9049	1.083 ± 0.014 mPa·s
298.15 K, 101.33 kPa, x2 = 0.1008	1.071 ± 0.027 mPa·s
298.15 K, 101.33 kPa, x2 = 0.2042	1.286 ± 0.031 mPa·s
298.15 K, 101.33 kPa, x2 = 0.3008	1.582 ± 0.038 mPa·s
298.15 K, 101.33 kPa, x2 = 0.4068	2.047 ± 0.047 mPa·s
298.15 K, 101.33 kPa, x2 = 0.5052	2.607 ± 0.059 mPa·s
298.15 K, 101.33 kPa, x2 = 0.6026	3.31 ± 0.074 mPa·s
298.15 K, 101.33 kPa, x2 = 0.7051	3.873 ± 0.086 mPa·s
298.15 K, 101.33 kPa, x2 = 0.8054	3.612 ± 0.08 mPa·s
298.15 K, 101.33 kPa, x2 = 0.9239	2.342 ± 0.053 mPa·s
298.16 K, 101 kPa, x2 = 0.09	1.07 ± 0.01 mPa·s
298.16 K, 101 kPa, x2 = 0.155	1.2 ± 0.01 mPa·s
298.16 K, 101 kPa, x2 = 0.235	1.4 ± 0.01 mPa·s
298.16 K, 101 kPa, x2 = 0.314	1.67 ± 0.02 mPa·s
298.16 K, 101 kPa, x2 = 0.459	2.37 ± 0.03 mPa·s
298.16 K, 101 kPa, x2 = 0.604	3.4 ± 0.03 mPa·s
298.16 K, 101 kPa, x2 = 0.6607	3.75 ± 0.03 mPa·s
298.16 K, 101 kPa, x2 = 0.741	3.97 ± 0.03 mPa·s
298.16 K, 101 kPa, x2 = 0.7645	3.94 ± 0.03 mPa·s
298.16 K, 101 kPa, x2 = 0.8044	3.65 ± 0.03 mPa·s
298.16 K, 101 kPa, x2 = 0.8517	3.16 ± 0.03 mPa·s
300.2 K, 101 kPa, x2 = 0.0298	1.005 ± 0.025 mPa·s
300.2 K, 101 kPa, x2 = 0.0519	1.037 ± 0.026 mPa·s
300.2 K, 101 kPa, x2 = 0.0694	1.062 ± 0.026 mPa·s
300.2 K, 101 kPa, x2 = 0.0926	1.105 ± 0.026 mPa·s
300.2 K, 101 kPa, x2 = 0.2763	1.564 ± 0.031 mPa·s
300.2 K, 101 kPa, x2 = 0.436	2.3 ± 0.037 mPa·s
300.2 K, 101 kPa, x2 = 0.555	3.112 ± 0.043 mPa·s
300.2 K, 101 kPa, x2 = 0.6259	3.615 ± 0.045 mPa·s
300.2 K, 101 kPa, x2 = 0.6897	3.957 ± 0.044 mPa·s
300.2 K, 101 kPa, x2 = 0.7347	4.029 ± 0.041 mPa·s
300.2 K, 101 kPa, x2 = 0.7737	3.926 ± 0.037 mPa·s
300.2 K, 101 kPa, x2 = 0.8015	3.741 ± 0.034 mPa·s
300.2 K, 101 kPa, x2 = 0.8783	2.782 ± 0.022 mPa·s
300.2 K, 101 kPa, x2 = 0.9515	1.599 ± 0.011 mPa·s
303.15 K, 101 kPa, x1 = 0.0203	1.076 ± 0.0099 mPa·s
303.15 K, 101 kPa, x1 = 0.0502	1.443 ± 0.012 mPa·s
303.15 K, 101 kPa, x1 = 0.0703	1.716 ± 0.013 mPa·s
303.15 K, 101 kPa, x1 = 0.1	2.112 ± 0.016 mPa·s
303.15 K, 101 kPa, x1 = 0.1203	2.379 ± 0.017 mPa·s
303.15 K, 101 kPa, x1 = 0.1497	2.719 ± 0.019 mPa·s
303.15 K, 101 kPa, x1 = 0.1698	2.915 ± 0.02 mPa·s
303.15 K, 101 kPa, x1 = 0.2003	3.156 ± 0.021 mPa·s
303.15 K, 101 kPa, x1 = 0.22	3.263 ± 0.022 mPa·s
303.15 K, 101 kPa, x1 = 0.2497	3.357 ± 0.022 mPa·s
303.15 K, 101 kPa, x1 = 0.2701	3.373 ± 0.022 mPa·s
303.15 K, 101 kPa, x1 = 0.3	3.339 ± 0.022 mPa·s
303.15 K, 101 kPa, x1 = 0.32	3.286 ± 0.022 mPa·s
303.15 K, 101 kPa, x1 = 0.3501	3.169 ± 0.021 mPa·s
303.15 K, 101 kPa, x1 = 0.4002	2.914 ± 0.02 mPa·s
303.15 K, 101 kPa, x1 = 0.4503	2.628 ± 0.018 mPa·s
303.15 K, 101 kPa, x1 = 0.5003	2.336 ± 0.016 mPa·s
303.15 K, 101 kPa, x1 = 0.5999	1.852 ± 0.013 mPa·s
303.15 K, 101 kPa, x1 = 0.7	1.484 ± 0.011 mPa·s
303.15 K, 101 kPa, x1 = 0.8002	1.216 ± 0.0097 mPa·s
303.15 K, 101 kPa, x1 = 0.8499	1.114 ± 0.0091 mPa·s
308.15 K, 101 kPa, x1 = 0.065	1.428 ± 0.018 mPa·s
308.15 K, 101 kPa, x1 = 0.1	1.767 ± 0.015 mPa·s
308.15 K, 101 kPa, x1 = 0.1011	1.81 ± 0.023 mPa·s
308.15 K, 101 kPa, x1 = 0.1495	2.307 ± 0.029 mPa·s
308.15 K, 101 kPa, x1 = 0.2	2.629 ± 0.024 mPa·s
308.15 K, 101 kPa, x1 = 0.2004	2.661 ± 0.033 mPa·s
308.15 K, 101 kPa, x1 = 0.2512	2.79 ± 0.034 mPa·s
308.15 K, 101 kPa, x1 = 0.3	2.763 ± 0.025 mPa·s
308.15 K, 101 kPa, x1 = 0.3002	2.784 ± 0.034 mPa·s
308.15 K, 101 kPa, x1 = 0.3501	2.667 ± 0.033 mPa·s
308.15 K, 101 kPa, x1 = 0.4	2.479 ± 0.023 mPa·s
308.15 K, 101 kPa, x1 = 0.4009	2.474 ± 0.031 mPa·s
308.15 K, 101 kPa, x1 = 0.5018	1.929 ± 0.024 mPa·s
308.15 K, 101 kPa, x1 = 0.6	1.694 ± 0.016 mPa·s
308.15 K, 101 kPa, x1 = 0.6031	1.568 ± 0.02 mPa·s
308.15 K, 101 kPa, x1 = 0.6505	1.424 ± 0.018 mPa·s
308.15 K, 101 kPa, x1 = 0.7005	1.305 ± 0.017 mPa·s
308.15 K, 101 kPa, x1 = 0.755	1.183 ± 0.015 mPa·s
308.15 K, 101 kPa, x1 = 0.8048	1.085 ± 0.014 mPa·s
308.15 K, 101 kPa, x1 = 0.8501	1.003 ± 0.013 mPa·s
308.15 K, 101 kPa, x1 = 0.9049	0.922 ± 0.012 mPa·s
318.15 K, 101 kPa, x1 = 0.025	0.784 ± 0.011 mPa·s
318.15 K, 101 kPa, x1 = 0.065	1.106 ± 0.015 mPa·s
318.15 K, 101 kPa, x1 = 0.1011	1.387 ± 0.018 mPa·s
318.15 K, 101 kPa, x1 = 0.12	1.533 ± 0.02 mPa·s
318.15 K, 101 kPa, x1 = 0.1495	1.718 ± 0.022 mPa·s
318.15 K, 101 kPa, x1 = 0.2004	1.944 ± 0.024 mPa·s
318.15 K, 101 kPa, x1 = 0.2512	2.05 ± 0.026 mPa·s
318.15 K, 101 kPa, x1 = 0.3002	2.056 ± 0.026 mPa·s
318.15 K, 101 kPa, x1 = 0.3501	1.986 ± 0.025 mPa·s
318.15 K, 101 kPa, x1 = 0.4009	1.853 ± 0.023 mPa·s
318.15 K, 101 kPa, x1 = 0.5018	1.553 ± 0.02 mPa·s
318.15 K, 101 kPa, x1 = 0.6031	1.274 ± 0.017 mPa·s
318.15 K, 101 kPa, x1 = 0.6505	1.178 ± 0.015 mPa·s
318.15 K, 101 kPa, x1 = 0.7005	1.085 ± 0.014 mPa·s
318.15 K, 101 kPa, x1 = 0.755	0.999 ± 0.013 mPa·s
318.15 K, 101 kPa, x1 = 0.8048	0.932 ± 0.013 mPa·s
318.15 K, 101 kPa, x1 = 0.8501	0.868 ± 0.012 mPa·s
318.15 K, 101 kPa, x1 = 0.9049	0.803 ± 0.011 mPa·s
